Test results taken from patent US7495027B2, “3-aryl-4-hydroxyfuranone compounds and the human and animal health use thereof” (Wyeth, priority 2003, dated 2009).

How the values were obtained:
[1] = tested on: larvae of blowfly, Lucilia sericata; test: whole plant or invertebrate; conditions: dose rate of 20 ppm, Lucilia sericata larvae on treated filter paper with bovine serum; for % Mortality 24 h: assessed at 24 h; for % Mortality 48 h: assessed at 48 h
Description: Comparative Evaluation of the Efficacy of a 3-Aryl-4-hydroxyfuranone Compound Against Blowfly Larvae
In this evaluation, filter paper discs are treated with an acetone solution of test compound and allowed to dry. Bovine serum and newly emerged larvae of blowfly, Lucilia sericata, are added to the treated filter paper. Mortality is assessed at 24 h and 48 h. When more than one evaluation is performed, the data are averaged.

[2] = tested on: C. elegans; test: Efficacy against nematodes (C. elegans motility rating); design: key: 0: no effect; 7: reduced movement in 24 h; 8: dead in 24 h; 9: dead in 4 h; conditions: observations at 4 h and 24 h postimmersion
Description: Evaluation of the Efficacy of a 3-Aryl-4-Hydroxyfuranone Against Nematodes
In this evaluation, cultures of C. elegans are maintained on E. coli lawns on Nematode Growth Agar at 20° C. New cultures are established twice a week. Nematodes for testing are rinsed from plates using M9 Buffer. […] One μL of this solution is added to each well of a 96 well plate. A mixture of C. elegans in M9 Buffer (100 μL) is added to each well, such that approximately 50 worms of mixed stages (L1, L2, L3, L4 and adults) are present in each well at a final concentration of 100 ppm, 150 ppm or […] of test compound. Concentration of test compound may be varied by gradient dilution of the stock DMSO solution. Observations are made under a dissecting microscope at 4 h and 24 h postimmersion. A rating is based on the motility of the larvae and adults, using the rating system shown below.

| Compound | % Mortality 24 h [1] [%] | % Mortality 48 h [1] [%] | other results |
| --- | --- | --- | --- |
| O=C1OC(=Cc2ccc(Cl)cc2)C(O)=C1c1ccc(F)cc1 (mixture of isomers) [R=H, R1=4-F—C6H4**, R2=4-Cl—C6H4] | 0 | 0 | – |
| O=C1O/C(=C\c2ccc(-c3ccccc3)c(F)c2)C(O)=C1c1cccc(C(F)(F)F)c1 [R=H, R1=3-CF3—C6H4, R2=4-(3-F-biphenyl)] | 0 | 0 | – |
| N#Cc1ccc(C2=C(O)C(=Cc3ccc(Cl)cc3)OC2=O)cc1 (mixture of isomers) [R=H, R1=4-CN—C6H4**, R2=4-Cl—C6H4] | 25 | 100 | – |
| N#Cc1ccc(C=C2OC(=O)C(c3cccc(Cl)c3)=C2O)cc1 (mixture of isomers) [R=H, R1=3-Cl—C6H4**, R2=4-CN—C6H4] | 0 | 0 | – |
| O=C1O/C(=C\c2cccc(C(F)(F)F)c2)C(O)=C1c1ccccc1 [R=H, R1=C6H5, R2=3-CF3—C6H4] | 0 | 0 | – |
| COc1cc(C=C2OC(=O)C(c3cc(Cl)cc(Cl)c3)=C2O)ccc1-c1cccc(C(F)(F)F)c1 | 0 | 0 | – |
| N#Cc1cccc(C2=C(O)C(=Cc3ccc(-c4ccc(Cl)cc4)cc3)OC2=O)c1 (mixture of isomers) | 0 | 0 | – |
| COc1ccc(C=C2OC(=O)C(c3ccc(Cl)cc3)=C2O)cc1 [R=H, R1=4-Cl—C6H4, R2=4-OMe—C6H4] | 0 | 0 | – |
| O=C1OC(=Cc2ccc(F)cc2)C(O)=C1c1ccc(F)cc1 (mixture of isomers) [R=H, R1=4-F—C6H4**, R2=4-F—C6H4] | 0 | 0 | – |
| N#Cc1ccc(C=C2OC(=O)C(c3ccc(C#N)cc3)=C2O)cc1 (mixture of isomers) [R=H, R1=4-CN—C6H4**, R2=4-CN—C6H4] | 40 | 100 | – |
| N#Cc1ccc(C=C2OC(=O)C(c3ccc(C(F)(F)F)cc3)=C2O)cc1 (mixture of isomers) [R=H, R1=4-CF3—C6H4**, R2=4-CN—C6H4] | 100 | 100 | – |
| O=C1OC(=Cc2ccc(-c3ccc(C(F)(F)F)cc3)cc2)C(O)=C1c1ccc(Cl)cc1 (mixture of isomers) | 0 | 0 | – |
| N#Cc1ccc(C=C2OC(=O)C(c3ccc(-c4ccc(Cl)cc4)cc3)=C2O)cc1 (mixture of isomers) | 0 | 0 | – |
| COC1=C(c2cccc(C(F)(F)F)c2)C(=O)O/C1=C\c1ccccc1 [R=CH3, R1=3-CF3—C6H4, R2=C6H5] | 0 | 0 | – |
| O=C1OC(=Cc2ccc(F)cc2)C(O)=C1c1cccc(Cl)c1 (mixture of isomers) [R=H, R1=3-Cl—C6H4**, R2=4-F—C6H4] | 0 | 0 | – |
| O=C1OC(=Cc2ccc(C(F)(F)F)cc2)C(O)=C1c1cccc(Cl)c1 (mixture of isomers) [R=H, R1=3-Cl—C6H4**, R2=4-CF3—C6H4] | 60 | 75 | – |
| N#Cc1ccc(C2=C(O)C(=Cc3ccc(C(F)(F)F)cc3)OC2=O)cc1 (mixture of isomers) [R=H, R1=4-CN—C6H4**, R2=4-CF3—C6H4] | 100 | 100 | – |
| N#Cc1ccc(C=C2OC(=O)C(c3cccc(C#N)c3)=C2O)cc1 (mixture of isomers) [R=H, R1=3-CN—C6H4**, R2=4-CN—C6H4] | 0 | 0 | – |
| O=C1OC(=Cc2ccc(C(F)(F)F)cc2)C(O)=C1c1ccc(F)cc1 (mixture of isomers) [R=H, R1=4-F—C6H4**, R2=4-CF3—C6H4] | 0 | 0 | – |
| O=C1O/C(=C\c2cccc3ccccc23)C(O)=C1c1cccc(CO)c1 [R=H, R1=3-CH2OH—C6H4, R2=1-naphthyl] | 0 | 0 | – |
| N#Cc1ccc(-c2ccc(C=C3OC(=O)C(c4ccc(C(F)(F)F)cc4)=C3O)cc2)cc1 (mixture of isomers) | 0 | 0 | – |
| N#Cc1ccc(C2=C(O)C(=Cc3cccc(C(F)(F)F)c3)OC2=O)cc1 (mixture of isomers) [R=H, R1=4-CN—C6H4**, R2=3-CF3—C6H4] | 0 | 90 | – |
| O=C1OC(=Cc2ccccc2C(F)(F)F)C(O)=C1c1ccc(Cl)cc1 (mixture of isomers) [R=H, R1=4-Cl—C6H4**, R2=2-CF3—C6H4] | 10 | 10 | – |
| O=C1OC(=Cc2ccc(F)cc2)C(O)=C1c1ccc(C(F)(F)F)cc1 (mixture of isomers) [R=H, R1=4-CF3—C6H4**, R2=4-F—C6H4] | 100 | 100 | – |
| O=C1OC(=Cc2ccc(Cl)cc2)C(O)=C1c1cccc(Cl)c1 (mixture of isomers) [R=H, R1=3-Cl—C6H4**, R2=4-Cl—C6H4] | 0 | 0 | – |
| N#Cc1cccc(C2=C(O)C(=Cc3ccc(F)cc3)OC2=O)c1 (mixture of isomers) [R=H, R1=3-CN—C6H4**, R2=4-F—C6H4] | 0 | 0 | – |

| Compound | % Mortality 24 h [1] [%] | % Mortality 48 h [1] [%] | other results |
| --- | --- | --- | --- |
| CC(=O)Nc1cccc(C2=C(O)/C(=C/c3ccc(-c4cccc(NC(C)=O)c4)cc3)OC2=O)c1 | 0 | 0 | – |
| N#Cc1ccc(-c2ccc(C=C3OC(=O)C(c4cccc(Cl)c4)=C3O)cc2)cc1 (mixture of isomers) | 0 | 0 | – |
| N#Cc1ccc(-c2ccc(C=C3OC(=O)C(c4cccc(C(F)(F)F)c4)=C3O)cc2)cc1 (mixture of isomers) | 0 | 0 | – |
| C=CCOC1=C(c2ccc(Cl)cc2)C(=O)OC1=Cc1ccc(C#N)cc1 (mixture of isomers) | 0 | 0 | – |
| CC(C)(C)c1ccc(-c2ccc(C3=C(O)C(=Cc4ccc(-c5ccccc5)cc4)OC3=O)cc2)cc1 | 0 | 0 | – |
| N#Cc1cccc(C2=C(O)C(=Cc3ccc(Cl)cc3)OC2=O)c1 (mixture of isomers) [R=H, R1=3-CN—C6H4**, R2=4-Cl—C6H4] | 0 | 0 | – |
| O=C1OC(=Cc2ccc(F)cc2)C(O)=C1c1ccc(Cl)cc1 (mixture of isomers) [R=H, R1=4-Cl—C6H4**, R2=4-F—C6H4] | 0 | 0 | – |
| O=C1OC(=Cc2ccc(-c3ccc(Cl)cc3)cc2)C(O)=C1c1cccc(Cl)c1 (mixture of isomers) | 0 | 0 | – |
| O=C1OC(=Cc2ccc(-c3ccc(Cl)cc3)cc2)C(O)=C1c1cccc(C(F)(F)F)c1 (mixture of isomers) | 0 | 0 | – |
| O=C1OC(=Cc2ccc(-c3ccc(Cl)cc3)cc2)C(O)=C1c1ccc(C(F)(F)F)cc1 (mixture of isomers) | 0 | 65 | – |
| O=C1OC(=Cc2ccc(-c3ccc(Cl)cc3)cc2)C(O)=C1c1ccc(OC(F)(F)F)cc1 (mixture of isomers) | – | – | Rating ([2]; dose 100 ppm): 9 |
| O=C1OC(=Cc2ccc(Cl)s2)C(O)=C1c1ccc(Cl)s1 | – | – | Rating ([2]; dose 100 ppm): 9 |
| O=C1OC(=Cc2ccc(Cl)c(Cl)c2)C(O)=C1c1ccc(Cl)s1 | – | – | Rating ([2]; dose 100 ppm): 9 |
| CCOC(=O)N1CCN(c2ccc(C=C3OC(=O)C(c4cc(Cl)cc(Cl)c4)=C3O)cc2F)CC1 | – | – | Rating ([2]; dose 150 ppm): 0 |
| CC(C)c1ccc(C2=C(O)/C(=C/c3cccc(C(F)(F)F)c3Cl)OC2=O)cc1 | – | – | Rating ([2]; dose 200 μM): 9 |
| Cc1ccc(C)c(C2=C(O)/C(=C/c3cc(C(F)(F)F)ccc3Cl)OC2=O)c1 | – | – | Rating ([2]; dose 200 μM): 0 |
| N#Cc1ccc(C2=C(O)C(=Cc3ccc(Cl)c(Cl)c3)OC2=O)cc1 (mixture of isomers) [R=H; R1=4-CN—C6H4**; R2=3,4-diCl—C6H4] | – | – | Rating ([2]; dose 100 ppm): 9 |
| O=C1O/C(=C\c2ccc(OC(F)F)cc2)C(O)=C1c1ccc(Cl)s1 | – | – | Rating ([2]; dose 100 ppm): 9 |
| COC1=C(c2cccc(C(F)(F)F)c2)C(=O)O/C1=C\c1ccccc1 [R=CH3; R1=3-CF3—C6H4; R2=C6H5] | – | – | Rating ([2]; dose 150 ppm): 0 |
| O=C1OC(=Cc2ccc(-n3cccc3)cc2)C(O)=C1c1ccc(OC(F)(F)F)cc1 (mixture of isomers) | – | – | Rating ([2]; dose 100 ppm): 9 |
| O=C1O/C(=C\c2ccc(N3CCOCC3)c3ccccc23)C(O)=C1c1cccc(Cl)c1 | – | – | Rating ([2]; dose 150 ppm): 0 |
| O=C1O/C(=C\c2cccc3ccccc23)C(O)=C1c1cccc2ccccc12 [R=H; R1=1-naphthyl; R2=1-naphthyl] | – | – | Rating ([2]; dose 150 ppm): 0 |
| CN1CCN(c2ccc(C=C3OC(=O)C(c4ccc(OC(F)(F)F)cc4)=C3O)cc2)CC1 (mixture of isomers) | – | – | Rating ([2]; dose 100 ppm): 0 |
| Cc1ccc(C2=C(O)/C(=C/c3cccc(C(F)(F)F)c3Cl)OC2=O)cc1 [R=H; R1=4-CH3—C6H4; R2=2-Cl-3-CF3—C6H3] | – | – | Rating ([2]; dose 200 μM): 9 |
| O=C1OC(=Cc2cc(F)cc(C(F)(F)F)c2)C(O)=C1c1ccc(-c2ccccc2)cc1 [R=H; R1=4-biphenyl; R2=3-F-5-CF3—C6H3] | – | – | Rating ([2]; dose 200 μM): 9 |
| CCOC(=O)N1CCN(c2ccc(/C=C3\OC(=O)C(c4cccc(Cl)c4)=C3O)cc2F)CC1 | – | – | Rating ([2]; dose 150 ppm): 7 |
